Data as given in US8420605B2, “Hydrogel compositions” (The University of Strathclyde, priority 2005, dated 2013).
Ends that are not written are not given here. * marks the point of attachment. Fmoc = O=C(OCC1c2ccccc2-c2ccccc21)*; Cbz = O=C(OCc1ccccc1)*

How the values were obtained:
[1] = Preparation of self-assembled peptide hydrogels by pH adjustment (gel formation); type: physicochemical; conditions: for pH: pH at which the gel formed at the indicated concentrations (Table 3)
Experimental: Fmoc peptides (from BACHEM Ltd) were weighed out into 4 ml glass vials. 2 ml purified water was added followed by sonication for 30-60 seconds. 0.5M NaOH solution was added in 50 μl droplets until a clear solution was formed. 0.1M HCl was added to the solution by stepwise addition of 50 μl followed by mixing using a vortex. pH values were estimated by transferring a spatula tip of hydrogel onto universal indicator paper.
Self-assembled scaffolds were prepared by first suspending the Fmoc-dipeptide in purified water. Upon increase of the pH by addition of concentrated NaOH (thus de-protonating the carboxylic acid group) to a value of >8, a clear solution was obtained. To this solution, concentrated hydrochloric acid was added drop wise until the pH of the solution became 7, at which point a clear, self-supporting gel was formed.
Table 3 below identifies various peptide derivatives (incorporating an aromatic stacking ligand) and mixtures thereof that formed gels at a pH of 6-8 at the indicated concentrations: […]

[2] = as above; type: physicochemical
[3] = Hydrogel formation from Fmoc-amino acid/di-peptide combinations (tripeptides); type: physicochemical; conditions: Fmoc-AA + di-peptide combination
From the text: The inventors thought it would be sensible to retain the two consecutive phenylalanine residues in the peptide, but introduce a third amino acid immediately after the Fmoc cap and before the Phe-Phe. […] In addition, the inventors also made the tripeptide: Fmoc-Leu-Leu-Leu.

[4] = Xu et al., J. Am. Chem. Soc. 2003, 125, 13680; cited from earlier work

Row | pH [1] | Gel formed? [3] | Substance | pH value for gelation [4] | also measured
1 | 7 |  | Cbz-Leu-Leu-Leu-OH |  | Gel? ([1]; Component 1 5-20 mM/L, pH 7): ✓
2 |  | ✓ | Fmoc-Ala-Phe-Phe |  | 
3 | 3-5 |  | Fmoc-Gly-Gly-OH | 3 | Gel? ([2]; Component 1 10-40 mM/L, pH 3-5): ✓
4 |  | ✓ | Fmoc-Leu-Leu-Leu |  | 
5 | 3-5 |  | Fmoc-Phe-Gly-OH |  | Gel? ([2]; Component 1 20 mM/L, pH 3-5): ✓
6 | 7 | ✓ | Fmoc-Phe-Phe-Phe-OH |  | Gel? ([1]; Component 1 5-20 mM/L, pH 7): ✓
7 |  | ✓ | Fmoc-Val-Phe-Phe |  | 

The next lines start with the substance.

Row | Substance | pH [1] | Gel formed? [3] | pH value for gelation [4] | also measured
8 | Cbz-Phe-Phe-OH | 6-8 |  |  | Gel? ([1]; Component 1 10-30 mM/L, pH 6-8): ✓
9 | Fmoc-Ala-Ala-OH | 3 |  |  | Gel? ([2]; Component 1 40 mM/L, pH 3): ✓
10 | Fmoc-D-Ala-D-Ala |  |  | 3 | 
11 | Fmoc-Gly-D-Ala |  |  | 5 | 
12 | Fmoc-Gly-L-SER |  |  | 5 | 
13 | Fmoc-L-Ala-L-Ala |  |  | 3 | 
14 | Fmoc-Leu-Gly-OH | 2 |  |  | Gel? ([2]; Component 1 20 mM/L, pH 2): ✓
15 | Fmoc-Leu-Phe-Phe |  | ✓ |  | 
